Results on 82 compounds are retold here after patent US20170000133A1, “BENZOXABOROLE FUNGICIDES” (SYNGENTA PARTICIPATIONS AG, priority 2013, published 2017).

Each structure is given as a SMILES string. Some results are limits rather than exact numbers.

One assay concerns Pythium ultimum. Kind of assay: Pythium ultimum / liquid culture (seedling damping off). Type of assay: cell-based. The following applies: Globisporangium ultimum, read-out: disease control (inhibition of growth determined photometrically).
What is called inhibition is how much of the control response was suppressed. As for `COP(=O)(CCOC(=O)c1cc2c(cc1Cl)COB2O)OC` [Compound 228], the inhibition at 200 ppm is at least 80%.

With `COP(=O)(CCOC(=O)c1cc2c(cc1F)COB2O)OC` [Compound 416], the inhibition at 200 ppm was at least 80%.

The assay is the same for the next values; noted with them: Globisporangium ultimum; 200 ppm; potato dextrose broth, 24° C., 2-3 days after application; read-out: disease control (inhibition of growth determined photometrically).
Turning to `O=C(NCCC1OCCO1)c1ccc2c(c1)B(O)OC2` [Compound 255], the inhibition at 200 ppm is at least 80%. For the compound `O=C(Nc1cc(-c2ccccc2)[nH]n1)c1cc2c(cc1Cl)COB2O` [Compound 160], the inhibition at 200 ppm was at least 80%.

Regarding `CN(C)S(=O)(=O)c1ccc(NC(=O)c2cc3c(cc2F)COB3O)cc1` [Compound 173], the inhibition at 200 ppm is at least 80%. With `O=C(Nc1ccc(-n2cccc2)cc1)c1ccc2c(c1)B(O)OC2` [Compound 287], the inhibition at 200 ppm was at least 80%. The same measure, in the same setting: with `O=C(OC1CCOC1)c1cc2c(cc1Cl)COB2O` (stereo not shown) [Compound 235] the figure was at least 80%; with `Cc1onc(-c2ccccc2)c1NC(=O)c1cc2c(cc1F)COB2O` [Compound 180], at least 80%; with `O=C(NC1CCSC1=O)c1cc2c(cc1Cl)COB2O` (stereo not shown) [Compound 55], at least 80%. As to `O=C(NCc1ccccc1C(F)(F)F)c1ccc2c(c1)B(O)OC2` [Compound 275], the inhibition at 200 ppm is at least 80%. Turning to `Cc1onc(-c2ccccc2)c1NC(=O)c1ccc2c(c1)B(O)OC2` [Compound 301], the inhibition at 200 ppm was at least 80%. The same measure, in the same setting: with `O=C(NCC(O)c1ccc(O)cc1)c1ccc2c(c1)B(O)OC2` (stereo not shown) [Compound 249] the figure was at least 80%. Same read-out and setting: next, `O=C(OC1CCOC1)c1cc2c(cc1F)COB2O` (stereo not shown) [Compound 426]: at least 80%; `CS(=O)(=O)c1ccc(CNC(=O)c2cc3c(cc2F)COB3O)cc1` [Compound 86]: at least 80%; `O=C(NCCOc1ccccc1)c1cc2c(cc1Cl)COB2O` [Compound 83]: at least 80%.

With `O=C(OC1COC1)c1cc2c(cc1Cl)COB2O` [Compound 234], the inhibition at 200 ppm was at least 80%. As to `O=C(NCCC(F)(F)F)c1ccc2c(c1)B(O)OC2` [Compound 246], the inhibition at 200 ppm was at least 80%. In the case of `O=C(NCCCCl)c1cc2c(cc1F)COB2O` [Compound 70], the inhibition at 200 ppm is at least 80%.

In the case of `O=C(NCCc1ccc2c(c1)OCO2)c1cc2c(cc1F)COB2O` [Compound 82], the inhibition at 200 ppm is at least 80%. On the same count and under the same terms, next, `O=C(OC1COC1)c1ccc2c(c1)B(O)OC2` [Compound 363]: at least 80%; `CN(C)S(=O)(=O)c1ccc(NC(=O)c2ccc3c(c2)B(O)OC3)cc1` [Compound 295]: at least 80%. As to `O=C(Nc1ccc2ncsc2c1)c1cc2c(cc1F)COB2O` [Compound 166], the inhibition at 200 ppm was at least 80%.

On to `CSc1nc(NC(=O)c2cc3c(cc2F)COB3O)n[nH]1` [Compound 177], for which the inhibition at 200 ppm was at least 80%. On the same count and under the same terms, next, `Cc1nnc(NC(=O)c2ccc3c(c2)B(O)OC3)s1` [Compound 305]: at least 80%; `O=C(NCCC(F)(F)F)c1cc2c(cc1Cl)COB2O` [Compound 54]: at least 80%. In the case of `CS(=O)(=O)CCOC(=O)c1cc2c(cc1F)COB2O` [Compound 421], the inhibition at 200 ppm was at least 80%.

Take `O=C(NCCN1CCN(Cc2ccccc2)CC1)c1ccc2c(c1)B(O)OC2` [Compound 278]: the inhibition at 200 ppm is at least 80%. As to `O=C(Nc1cccc2ncccc12)c1cc2c(cc1F)COB2O` [Compound 152], the inhibition at 200 ppm is at least 80%.

As to `COCCOCCOCCOC(=O)c1cc2c(cc1F)COB2O` [Compound 432], the inhibition at 200 ppm is at least 80%.

With `O=C(Nc1ccc(S(=O)(=O)Nc2ccccn2)cc1)c1ccc2c(c1)B(O)OC2` [Compound 296], the inhibition at 200 ppm was at least 80%. `COc1ccc(CNC(=O)c2cc3c(cc2Cl)COB3O)cc1` [Compound 91]: the inhibition at 200 ppm was at least 80%. Same read-out and setting: with `Cn1cc(CCCOC(=O)c2cc3c(cc2Cl)COB3O)cn1` [Compound 219] the figure was at least 80%; with `O=C(NCc1ccc(-n2cccn2)cc1)c1cc2c(cc1Cl)COB2O` [Compound 93], at least 80%. With `O=C(NCCc1ccc2c(c1)OCO2)c1cc2c(cc1Cl)COB2O` [Compound 58], the inhibition at 200 ppm was at least 80%. Still for that read-out and setting: with `O=C(OCCCC(=O)N1CCCC1)c1cc2c(cc1Cl)COB2O` [Compound 220] the figure was at least 80%. Same read-out and setting: with `O=C(NCc1ccccc1)c1cc2c(cc1Cl)COB2O` [Compound 71] the figure was at least 80%. Still for that read-out and setting: with `O=C(NC1CCSC1=O)c1cc2c(cc1F)COB2O` (stereo not shown) [Compound 76] the figure was at least 80%; with `O=C(OCCCC(=O)N1CCCC1)c1ccc2c(c1)B(O)OC2` [Compound 346], at least 80%. For `Cc1cccc(Cl)c1NC(=O)c1ccc2c(c1)B(O)OC2` [Compound 281], the inhibition at 200 ppm is at least 80%. Consider `CSCCNC(=O)c1cc2c(cc1F)COB2O` [Compound 134], for which the inhibition at 200 ppm was at least 80%.

For the compound `O=C(NCCOc1ccccc1)c1cc2c(cc1F)COB2O` [Compound 117], the inhibition at 200 ppm is at least 80%. On to `COc1ccc(NC(=O)c2cc3c(cc2Cl)COB3O)c(OC)c1` [Compound 118], for which the inhibition at 200 ppm is at least 80%. On to `CSc1nc(NC(=O)c2cc3c(cc2Cl)COB3O)n[nH]1` [Compound 149], for which the inhibition at 200 ppm was at least 80%. Same read-out and setting: with `O=C(NCc1ccc(Cl)nc1)c1cc2c(cc1Cl)COB2O` [Compound 105] the figure was at least 80%; with `O=C(NCCc1ccccc1)c1cc2c(cc1F)COB2O` [Compound 111], at least 80%. In the case of `O=C(NCC1CCCO1)c1ccc2c(c1)B(O)OC2` (stereo not shown) [Compound 256], the inhibition at 200 ppm was at least 80%.

With `CC(NC(=O)c1cc2c(cc1Cl)COB2O)c1ccccc1` (stereo not shown) [Compound 75], the inhibition at 200 ppm is at least 80%. As to `Cc1onc(-c2ccccc2)c1NC(=O)c1cc2c(cc1Cl)COB2O` [Compound 156], the inhibition at 200 ppm was at least 80%. Take `O=C(Nc1cccc(F)c1)c1cc2c(cc1Cl)COB2O` [Compound 120]: the inhibition at 200 ppm is at least 80%.

On to `Cc1csc(NC(=O)c2cc3c(cc2F)COB3O)n1` [Compound 176], for which the inhibition at 200 ppm is at least 80%. Still for that read-out and setting: next, `O=C(NCc1ccccn1)c1ccc2c(c1)B(O)OC2` [Compound 52]: at least 80%; `Cc1cc(O)nc(NC(=O)c2cc3c(cc2F)COB3O)n1` [Compound 178]: at least 80%.

For the compound `CCOC(=O)C1CC=CCC1NC(=O)c1ccc2c(c1)B(O)OC2` (stereo not shown) [Compound 248], the inhibition at 200 ppm is at least 80%. With `Cc1cc(O)nc(NC(=O)c2cc3c(cc2Cl)COB3O)n1` [Compound 153], the inhibition at 200 ppm is at least 80%.

As to `O=C(OCC1CCCO1)c1cc2c(cc1Cl)COB2O` (stereo not shown) [Compound 212], the inhibition at 200 ppm is at least 80%. Still for that read-out and setting: with `Cc1cc(C)c2c(NC(=O)c3ccc4c(c3)B(O)OC4)[nH]nc2n1` [Compound 309] the figure was at least 80%; with `O=C(OCCCC(=O)N1CCCC1)c1cc2c(cc1F)COB2O` [Compound 408], at least 80%.

Regarding `O=C(Nc1ccccc1-c1cc2ccccc2[nH]1)c1cc2c(cc1Cl)COB2O` [Compound 135], the inhibition at 200 ppm was at least 80%. On the same count and under the same terms, with `Cc1nnc(NC(=O)c2cc3c(cc2Cl)COB3O)s1` [Compound 164] the figure was at least 80%; with `COCCOCCOCCOC(=O)c1cc2c(cc1Cl)COB2O` [Compound 239], at least 80%. With `O=C(Nc1ccccc1Cl)c1cc2c(cc1Cl)COB2O` [Compound 108], the inhibition at 200 ppm was at least 80%. Still for that read-out and setting: next, `O=C(NCCc1cccs1)c1cc2c(cc1Cl)COB2O` [Compound 81]: at least 80%; `O=C(NCCc1c[nH]c2ccccc12)c1cc2c(cc1F)COB2O` [Compound 130]: at least 80%.

For `O=C(NCC1CCCO1)c1cc2c(cc1Cl)COB2O` (stereo not shown) [Compound 64], the inhibition at 200 ppm was at least 80%. Same read-out and setting: next, `CS(=O)(=O)CCOC(=O)c1ccc2c(c1)B(O)OC2` [Compound 358]: at least 80%; `CSCCNC(=O)c1cc2c(cc1Cl)COB2O` [Compound 101]: at least 80%; `Cc1cc(O)nc(NC(=O)c2ccc3c(c2)B(O)OC3)n1` [Compound 299]: at least 80%.

In the case of `O=C(NCc1ccc(Cl)nc1)c1ccc2c(c1)B(O)OC2` [Compound 276], the inhibition at 200 ppm was at least 80%. Turning to `C#CC1(NC(=O)c2cc3c(cc2Cl)COB3O)CCCCC1` [Compound 62], the inhibition at 200 ppm was at least 80%.

For the compound `O=C(NCc1ccc(-n2cccn2)cc1)c1ccc2c(c1)B(O)OC2` [Compound 272], the inhibition at 200 ppm is at least 80%. Same read-out and setting: next, `O=C(Nc1cc(-c2ccccc2)[nH]n1)c1ccc2c(c1)B(O)OC2` [Compound 303]: at least 80%; `O=C(NCc1ccc(-n2cccn2)cc1)c1cc2c(cc1F)COB2O` [Compound 126]: at least 80%; `O=C(Nc1ccc2ccccc2n1)c1ccc2c(c1)B(O)OC2` [Compound 300]: at least 80%.

For `O=C(NCCc1c[nH]c2ccccc12)c1ccc2c(c1)B(O)OC2` [Compound 274], the inhibition at 200 ppm is at least 80%. For `Cc1cccnc1NC(=O)c1cc2c(cc1Cl)COB2O` [Compound 151], the inhibition at 200 ppm is at least 80%. Regarding `O=C(OC1CCOCC1)c1cc2c(cc1F)COB2O` [Compound 428], the inhibition at 200 ppm was at least 80%.

`O=C(NCCC(F)(F)F)c1cc2c(cc1F)COB2O` [Compound 72]: the inhibition at 200 ppm was at least 80%. The same measure, in the same setting: next, `O=C(NCc1ccc2c(c1)OCCO2)c1ccc2c(c1)B(O)OC2` [Compound 269]: at least 80%; `Cc1cc(=O)oc2cc(NC(=O)c3cc4c(cc3F)COB4O)ccc12` [Compound 172]: at least 80%. With `O=C(Nc1ccccc1N1CCOCC1)c1ccc2c(c1)B(O)OC2` [Compound 293], the inhibition at 200 ppm is at least 80%.

Turning to `C#CC1(NC(=O)c2ccc3c(c2)B(O)OC3)CCCCC1` [Compound 254], the inhibition at 200 ppm is at least 80%.

Turning to `COC(=O)c1cc2cc(NC(=O)c3ccc4c(c3)B(O)OC4)ccc2s1` [Compound 288], the inhibition at 200 ppm is at least 80%.
